Measurements: PubChem BioAssay (NCI)
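Exposure lasted 48 hours, with cells grown in 96-well plates and compounds tested at five concentrations. TGI marks complete inhibition of growth.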

Assays:
Experiment in all cases: inhibition of tumour cell growth, NCI panel, 48 h
OVCAR-3 ovarian = test system: OVCAR-3 ovarian
RPMI-8226 leukemia = test system: RPMI-8226 leukemia
SF-295 CNS = test system: SF-295 CNS
NCI-H460 lung = test system: NCI-H460 lung
SNB-19 CNS = test system: SNB-19 CNS
COLO 205 colon = test system: COLO 205 colon
NCI-H226 lung = test system: NCI-H226 lung
UACC-62 melanoma = test system: UACC-62 melanoma
NCI-H522 lung = test system: NCI-H522 lung
KM12 colon = test system: KM12 colon
SF-268 CNS = test system: SF-268 CNS
IGROV1 ovarian = test system: IGROV1 ovarian
UACC-257 melanoma = test system: UACC-257 melanoma
K-562 leukemia = test system: K-562 leukemia
T-47D breast = test system: T-47D breast
BT-549 breast = test system: BT-549 breast
SK-MEL-5 melanoma = test system: SK-MEL-5 melanoma
HCC-2998 colon = test system: HCC-2998 colon
MDA-MB-435 = test system: MDA-MB-435
SK-MEL-28 melanoma = test system: SK-MEL-28 melanoma
MCF7 breast = test system: MCF7 breast
ACHN renal = test system: ACHN renal
HOP-92 NSCLC = test system: HOP-92 NSCLC
UO-31 renal = test system: UO-31 renal
786-0 renal = test system: 786-0 renal
MDA-MB-231 breast = test system: MDA-MB-231 breast
SW-620 colon = test system: SW-620 colon
DU-145 prostate = test system: DU-145 prostate
HT29 colon = test system: HT29 colon
SF-539 CNS = test system: SF-539 CNS
EKVX NSCLC = test system: EKVX NSCLC
OVCAR-8 ovarian = test system: OVCAR-8 ovarian
NCI/ADR-RES ovarian = test system: NCI/ADR-RES ovarian
M14 melanoma = test system: M14 melanoma
CAKI-1 renal = test system: CAKI-1 renal
TK-10 renal = test system: TK-10 renal
MDA-N = test system: MDA-N
U251 CNS = test system: U251 CNS
MOLT-4 leukemia = test system: MOLT-4 leukemia
SNB-75 CNS = test system: SNB-75 CNS
A498 renal = test system: A498 renal
PC-3 prostate = test system: PC-3 prostate
HCT-15 colon = test system: HCT-15 colon
HCT-116 colon = test system: HCT-116 colon
MALME-3M melanoma = test system: MALME-3M melanoma
SK-MEL-2 melanoma = test system: SK-MEL-2 melanoma
A549 NSCLC = test system: A549 NSCLC
SR leukemia = test system: SR leukemia
SK-OV-3 ovarian = test system: SK-OV-3 ovarian
NCI-H23 lung = test system: NCI-H23 lung
OVCAR-4 ovarian = test system: OVCAR-4 ovarian
HOP-62 NSCLC = test system: HOP-62 NSCLC
OVCAR-5 ovarian = test system: OVCAR-5 ovarian
HS 578T breast = test system: HS 578T breast
RXF 393 renal = test system: RXF 393 renal
SN12C renal = test system: SN12C renal
LOX IMVI melanoma = test system: LOX IMVI melanoma
HL-60(TB) leukemia = test system: HL-60(TB) leukemia

O=C1c2ccccc2C(=O)c2c(NC(=O)c3ccc4c5c(ncnc35)-c3ccccc3C4=O)cccc21
TGI (OVCAR-3 ovarian): > 100 µM
TGI (RPMI-8226 leukemia): > 100 µM
TGI (SF-295 CNS): 64 µM
TGI (NCI-H460 lung): > 100 µM
TGI (SNB-19 CNS): > 100 µM
TGI (COLO 205 colon): > 100 µM
TGI (NCI-H226 lung): > 100 µM
TGI (UACC-62 melanoma): > 100 µM
TGI (NCI-H522 lung): > 100 µM
TGI (KM12 colon): > 100 µM
TGI (SF-268 CNS): > 100 µM
TGI (IGROV1 ovarian): > 100 µM
TGI (UACC-257 melanoma): > 100 µM
TGI (K-562 leukemia): > 100 µM
TGI (T-47D breast): > 100 µM
TGI (BT-549 breast): > 100 µM
TGI (SK-MEL-5 melanoma): > 100 µM
TGI (HCC-2998 colon): > 100 µM
TGI (MDA-MB-435): > 100 µM
TGI (SK-MEL-28 melanoma): > 100 µM
TGI (MCF7 breast): > 100 µM
TGI (ACHN renal): > 100 µM
TGI (HOP-92 NSCLC): > 100 µM
TGI (UO-31 renal): > 100 µM
TGI (786-0 renal): 84.7 µM
TGI (MDA-MB-231 breast): > 100 µM
TGI (SW-620 colon): > 100 µM
TGI (DU-145 prostate): > 100 µM
TGI (HT29 colon): > 100 µM
TGI (SF-539 CNS): > 100 µM
TGI (EKVX NSCLC): > 100 µM
TGI (OVCAR-8 ovarian): > 100 µM
TGI (NCI/ADR-RES ovarian): > 100 µM
TGI (M14 melanoma): > 100 µM
TGI (CAKI-1 renal): > 100 µM
TGI (TK-10 renal): 47.6 µM
TGI (MDA-N): > 100 µM
TGI (U251 CNS): > 100 µM
TGI (MOLT-4 leukemia): > 100 µM
TGI (SNB-75 CNS): 58.5 µM
TGI (A498 renal): > 100 µM
TGI (PC-3 prostate): > 100 µM
TGI (HCT-15 colon): > 100 µM
TGI (HCT-116 colon): > 100 µM
TGI (MALME-3M melanoma): > 100 µM
TGI (SK-MEL-2 melanoma): > 100 µM
TGI (A549 NSCLC): > 100 µM
TGI (SR leukemia): > 100 µM
TGI (SK-OV-3 ovarian): 48.2 µM
TGI (NCI-H23 lung): > 100 µM
TGI (OVCAR-4 ovarian): > 100 µM
TGI (HOP-62 NSCLC): 42.7 µM
TGI (OVCAR-5 ovarian): > 100 µM
TGI (HS 578T breast): > 100 µM
TGI (RXF 393 renal): 49.1 µM
TGI (SN12C renal): > 100 µM

COC(=O)c1ccc(NCc2cc(O)ccc2O)cc1O
TGI (OVCAR-3 ovarian): 15.2 µM
TGI (RPMI-8226 leukemia): 4.93 µM
TGI (SF-295 CNS): 27.2 µM
TGI (NCI-H460 lung): 31.2 µM
TGI (SNB-19 CNS): 31.8 µM
TGI (COLO 205 colon): 33.7 µM
TGI (NCI-H226 lung): 46.3 µM
TGI (UACC-62 melanoma): 34 µM
TGI (NCI-H522 lung): 1.59 µM
TGI (KM12 colon): 15.3 µM
TGI (SF-268 CNS): 21.8 µM
TGI (IGROV1 ovarian): 27.8 µM
TGI (UACC-257 melanoma): 30.9 µM
TGI (K-562 leukemia): > 79.3 µM
TGI (T-47D breast): 37.5 µM
TGI (BT-549 breast): 14.2 µM
TGI (SK-MEL-5 melanoma): 26.4 µM
TGI (HCC-2998 colon): 26.7 µM
TGI (MDA-MB-435): 23.2 µM
TGI (SK-MEL-28 melanoma): 30 µM
TGI (MCF7 breast): 21.6 µM
TGI (ACHN renal): 22.2 µM
TGI (HOP-92 NSCLC): 29 µM
TGI (UO-31 renal): 5.61 µM
TGI (786-0 renal): 21.5 µM
TGI (MDA-MB-231 breast): 25.7 µM
TGI (SW-620 colon): 19.9 µM
TGI (DU-145 prostate): 25.3 µM
TGI (HT29 colon): 34.4 µM
TGI (SF-539 CNS): 6.31 µM
TGI (EKVX NSCLC): 27 µM
TGI (OVCAR-8 ovarian): 19.8 µM
TGI (NCI/ADR-RES ovarian): 10.8 µM
TGI (M14 melanoma): 31.7 µM
TGI (CAKI-1 renal): 17.7 µM
TGI (TK-10 renal): 33.2 µM
TGI (MDA-N): 23.5 µM
TGI (U251 CNS): 24.2 µM
TGI (MOLT-4 leukemia): 8.49 µM
TGI (SNB-75 CNS): 22 µM
TGI (LOX IMVI melanoma): 32.1 µM
TGI (A498 renal): 58.8 µM
TGI (PC-3 prostate): > 32.3 µM
TGI (HCT-15 colon): 26.5 µM
TGI (HL-60(TB) leukemia): 4.21 µM
TGI (HCT-116 colon): 36.3 µM
TGI (MALME-3M melanoma): 34.7 µM
TGI (SK-MEL-2 melanoma): 37.4 µM
TGI (A549 NSCLC): 30.4 µM
TGI (SR leukemia): > 23.8 µM
TGI (SK-OV-3 ovarian): > 55.5 µM
TGI (NCI-H23 lung): 27.9 µM
TGI (OVCAR-4 ovarian): 26.2 µM
TGI (HOP-62 NSCLC): 24.4 µM
TGI (OVCAR-5 ovarian): 31 µM
TGI (HS 578T breast): > 68.1 µM
TGI (RXF 393 renal): 21.6 µM
TGI (SN12C renal): 29.1 µM
